Read-outs that look alike come from different tables or passages of the source.
Tests used:
IL-6 = assay: Inhibition of IL-6 production by mouse peritoneal macrophages (ELISA); type: cell-based, mice; settings: Macrophage, 48 hours, read-out: Inhibitory rate (%) IL-6; for inhibition at 10 µg/mL: 10 μg/ml; for inhibition at 50 µg/mL: 50 μg/ml; for inhibition at 100 µg/mL: 100 μg/ml; for inhibition at 1 µg/mL: 1 μg/ml; for inhibition at 5 µg/mL: 5 μg/ml
Procedure: (§1) C57BL/6CrSlc male mice were intraperitoneally injected with 2.0 ml of 3% Brewer tioglycolate medium. Three days later, macrophages were collected from the abdominal cavity with 5.0 ml Hank's balanced salt solution, and then equally divided into each well of a 48-well plate using RPMI 1640 medium supplemented with 10% FBS (Fetal Bovine Serum), followed by incubation in a CO2 incubator for 1 hour. After the macrophages adhered to the walls of the plate, they were incubated for 48 hours in the presence of a test compound with different concentrations. Following the incubation, the supernatant was collected from each well, assayed for IL-6, IL-10 and L-12 by ELISA to determine inhibitory rates against the production of these interleukins.

IL-12 = assay: Inhibition of IL-12 production by mouse peritoneal macrophages (ELISA); type: cell-based, mice; settings: Macrophage, read-out: Inhibitory rate (%) IL-12; for inhibition at 10 µg/mL: 10 μg/ml; for inhibition at 50 µg/mL: 50 μg/ml; for inhibition at 100 µg/mL: 100 μg/ml; for inhibition at 1 µg/mL: 1 μg/ml; for inhibition at 5 µg/mL: 5 μg/ml; for inhibition at 10 µM: 10 μM/L
Procedure: as §1

IL-10 = assay: Inhibition of IL-10 production by mouse peritoneal macrophages (ELISA); type: cell-based, mice; settings: Macrophage, 48 hours, read-out: Inhibitory rate (%) IL-10; for inhibition at 10 µg/mL: 10 μg/ml; for inhibition at 50 µg/mL: 50 μg/ml; for inhibition at 100 µg/mL: 100 μg/ml; for inhibition at 1 µg/mL: 1 μg/ml; for inhibition at 5 µg/mL: 5 μg/ml
Procedure: as §1

[1] = system: Rats with Minimal Change Nephrosis; assay: Inhibitory effects on urinary proteins in rats with minimal change nephrosis (Puromycin Aminonucleoside); type: in vivo; settings: S.D. male rats, PA 50 mg/kg i.v., test drug 2 mg/kg/day from day 6 to day 11, assayed at day 11
Procedure: Six week old S.D. male rats were intravenously injected with Puromycin Aminonucleoside (PA; SIGMA)at a dose of 50 mg/kg so as to develop nephrosis. Six days after PA treatment, the rats were administered with a test drug at a dose of 2 mg/kg/day by day 11. Each rat was assayed for an excreted urinary protein level at day 11 to determine an inhibitory rate.

Thromboxane A2 Synthase = target: T1, Thromboxane A2 Synthase (Rattus norvegicus, UniProt P49430); assay: Inhibitory effect on thromboxane A2 synthase: TXB2 in rat platelet rich plasma; type: cell-based, rats; settings: 10 μmol/l, rat PRP
T1 construct: centrifuged at 1,300 rpm for 7 minutes to obtain platelet rich plasma (PRP); from tissue; host or cells: platelet rich plasma (washed platelets) from the abdominal aorta blood of Sprague-Dawley rats
T1 sequence (P49430 1-533): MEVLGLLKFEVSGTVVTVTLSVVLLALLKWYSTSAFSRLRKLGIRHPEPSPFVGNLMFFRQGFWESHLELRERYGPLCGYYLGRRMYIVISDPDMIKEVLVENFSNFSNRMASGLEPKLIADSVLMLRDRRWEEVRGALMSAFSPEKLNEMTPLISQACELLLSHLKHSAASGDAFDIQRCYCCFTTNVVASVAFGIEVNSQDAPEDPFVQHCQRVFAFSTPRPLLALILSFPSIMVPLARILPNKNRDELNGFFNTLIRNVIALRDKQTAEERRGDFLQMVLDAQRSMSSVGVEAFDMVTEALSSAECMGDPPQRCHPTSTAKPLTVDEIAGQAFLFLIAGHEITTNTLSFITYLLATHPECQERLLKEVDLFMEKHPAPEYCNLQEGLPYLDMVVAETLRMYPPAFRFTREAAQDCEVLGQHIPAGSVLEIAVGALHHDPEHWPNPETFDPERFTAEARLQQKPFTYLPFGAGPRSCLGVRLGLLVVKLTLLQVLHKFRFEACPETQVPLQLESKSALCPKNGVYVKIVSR
Procedure: Eight week old Sprague-Dawley male rats were used in this example. The rats were anesthetized with pentobarbital sodium. The blood was collected from the abdominal aorta using a heparinized syringe, and centrifuged at 1,300 rpm for 7 minutes to obtain platelet rich plasma (PRP). PRP was suspended in an equivalent volume of a buffer containing 25 mmol/l Tris-HCl, 130 mmol/l sodium chloride and 0.3 mmol/l EDTA (pH 7.4)(buffer A), followed by centrifugation at 4° C., at 1,500 rpm for 5 minutes. This procedure was repeated twice, and PRP was finally suspended in a buffer containing 25 mmol/l Tris-HCl, 130 mmol/l, 0.1% glucose and 0.1% albumin (pH7.4)(buffer B).
5×10^6 cells/mm^3 PRP preparation in buffer B was divided into each well of a 96-well plate in an amount of 150 μl/well. Each test substance was prepared at a final concentration of 10 μmol/l and added to the PRP preparation in an amount of 50 μl/well. Immediately after addition of the test substance, 5 μl of an aggregation-inducing agent, type IV collagen (1 mg/ml) or arachidonic acid (50 mmol/l), was added and incubated for 10 minutes. 20 μl of an EDTA-indomethacin solution was added to the each well to stop the reaction. The supernatant was assayed for thromboxane B2 (TXB2), stable metabolite of thromboxane A2 (TXA2), using a TXB2 measurement kit (Cayman).

[2] = arachidonic acid, 10 minutes, read-out: TXB2 induced by arachidonic acid (Inhibitory rate; %)
[3] = type IV collagen, 10 minutes, read-out: TXB2 induced by collagen (Inhibitory rate; %)
[4] = summary of Table 3, read-out: inhibitory activity against TXA2 production mediated by collagen or arachidonate

Work on `CCOC(=O)COc1ccc(/C=C/C(=O)N(C)Cc2cccnc2)cc1` [Example 2, Ethyl [4-[(E)-2-[N-Methyl-N-(3-pyridylmethyl)carbamoyl]ethenyl]phenoxy]-acetate] yielded an inhibition at 10 µg/mL (IL-6) of 58.8%, an inhibition at 50 µg/mL (IL-6) of 78.9% and an inhibition at 100 µg/mL (IL-6) of 88%. The inhibition at 10 µg/mL (IL-12; 48 hours) was 35%, the inhibition at 50 µg/mL (IL-12; 48 hours) was 63.8% and the inhibition at 100 µg/mL (IL-12; 48 hours) was 65.4%. It also gave an inhibition at 10 µg/mL (IL-10) of 27.8%, an inhibition at 50 µg/mL (IL-10) of 51.4% and an inhibition at 100 µg/mL (IL-10) of 50%.
`COC(=O)COc1ccc(/C=C/C(=O)NCc2cccnc2)cc1` [Example 7, methyl [4-[(E)-2-[N-(3-pyridylmethyl)carbamoyl]ethenyl]phenoxy]acetate] gave an inhibition at 1 µg/mL (IL-6) of 13.5%, an inhibition at 5 µg/mL (IL-6) of 31.5% and an inhibition at 10 µg/mL (IL-6) of 32.5%. It also gave an inhibition at 1 µg/mL (IL-12; 48 hours) of 28.4%, an inhibition at 5 µg/mL (IL-12; 48 hours) of 40.1% and an inhibition at 10 µg/mL (IL-12; 48 hours) of 52.5%. For the same molecule, the inhibition at 1 µg/mL (IL-10) was 17.9%, the inhibition at 5 µg/mL (IL-10) was 1.3% and the inhibition at 10 µg/mL (IL-10) was 25.4%. The “Inhibitory rate (%) of excreted urinary protein level” value (“Inhibitory rate (%)” below) [1] was 50%.
For `CCOC(=O)COc1ccc(/C=C/C(=O)NCCc2cccnc2)cc1` [Example 10], the inhibition at 10 µg/mL (IL-6) was 61.2%, the inhibition at 50 µg/mL (IL-6) was 63.5% and the inhibition at 100 µg/mL (IL-6) was 61.6%. It also gave an inhibition at 10 µg/mL (IL-12; 48 hours) of 30.3%, an inhibition at 50 µg/mL (IL-12; 48 hours) of 27.8% and an inhibition at 100 µg/mL (IL-12; 48 hours) of 35%. The inhibition at 10 µg/mL (IL-10) was 29.5%, the inhibition at 50 µg/mL (IL-10) was 33.3% and the inhibition at 100 µg/mL (IL-10) was 27.8%. For the same molecule, the “Inhibitory rate (%)” value [1] was 56%.
`COC(=O)COc1ccc(/C=C/C(=O)NCCc2ccccn2)cc1` [Example 16] gave an inhibition at 1 µg/mL (IL-6) of 26.1%, an inhibition at 5 µg/mL (IL-6) of 41.3% and an inhibition at 10 µg/mL (IL-6) of 79%. The inhibition at 1 µg/mL (IL-12; 48 hours) was 31.4%, the inhibition at 5 µg/mL (IL-12; 48 hours) was 47.4% and the inhibition at 10 µg/mL (IL-12; 48 hours) was 40.3%. For the same molecule, the inhibition at 1 µg/mL (IL-10) was 49.9%, the inhibition at 5 µg/mL (IL-10) was 50.1% and the inhibition at 10 µg/mL (IL-10) was 34.9%. For the same molecule, the “Inhibitory rate (%)” value [1] was 42%.
`COC(=O)COc1ccc(/C=C/C(=O)NCc2ccccn2)cc1` [Example 29] showed an inhibition at 10 µg/mL (IL-6) of -9.5%, an inhibition at 10 µg/mL (IL-12; 48 hours) of 37.6% and an inhibition at 10 µg/mL (IL-10) of -25.7%.
`COC(=O)COc1ccc(/C=C/C(=O)NCCc2ccncc2)cc1` [Example 30] gave an inhibition at 10 µg/mL (IL-6) of 58.8%, an inhibition at 10 µg/mL (IL-12; 48 hours) of 71.7% and an inhibition at 10 µg/mL (IL-10) of -38.9%.
With `Cl.O=C(O)COc1ccc(/C=C/C(=O)NCc2cccnc2)cc1` [Example 36, [4-[(E)-2-[N-(3-pyridylmethyl)carbamoyl]ethenyl]phenoxy]acetic acid hydrochloride] the inhibition at 10 µg/mL (IL-6) was 53.1%, the inhibition at 50 µg/mL (IL-6) was 56.7% and the inhibition at 100 µg/mL (IL-6) was 21.7%. The inhibition at 10 µg/mL (IL-12; 48 hours) was 52.1%, the inhibition at 50 µg/mL (IL-12; 48 hours) was 82.1% and the inhibition at 100 µg/mL (IL-12; 48 hours) was 64%. For the same molecule, the inhibition at 10 µg/mL (IL-10) was -45.8%, the inhibition at 50 µg/mL (IL-10) was -13% and the inhibition at 100 µg/mL (IL-10) was 22.2%. For the same molecule, the “Inhibitory rate (%)” value [1] was 29%.
Molecule `O=C(O)COc1ccccc1/C=C/C(=O)NCc1cccnc1` [Example 37] has an inhibition at 10 µM (Thromboxane A2 Synthase; [2]) of 26% and an inhibition at 10 µM (Thromboxane A2 Synthase; [3]) of 26%.
For `NC(=O)COc1ccc(/C=C/C(=O)NCc2cccnc2)cc1` [Example 41], the inhibition at 10 µM (Thromboxane A2 Synthase; [2]) was 36% and the inhibition at 10 µM (Thromboxane A2 Synthase; [3]) was 14%.
`O=C(/C=C/c1ccccc1OCC(=O)NO)NCc1cccnc1` [Example 53] showed an inhibition at 10 µM (Thromboxane A2 Synthase; [2]) of 56%, an inhibition at 10 µM (Thromboxane A2 Synthase; [3]) of 43% and an inhibition at 10 µM (Thromboxane A2 Synthase; [4]) of at least 50%.
`CNC(=S)COc1ccccc1/C=C/C(=S)NCc1cccnc1` [Example 65, (E)-3-[2-[[N-(Methyl)thiocarbamoyl]methoxy]phenyl]-N-(3-pyridylmethyl)-2-propenoic Acid Thioamide] showed an inhibition at 10 µM (Thromboxane A2 Synthase; [2]) of 23% and an inhibition at 10 µM (Thromboxane A2 Synthase; [3]) of 12%.
In the case of `CN(Cc1cccnc1)C(=O)/C=C/c1ccc(OCC(=O)O)cc1` [Example 72], the inhibition at 10 µM (Thromboxane A2 Synthase; [2]) was 61%, the inhibition at 10 µM (Thromboxane A2 Synthase; [3]) was 46% and the inhibition at 10 µM (Thromboxane A2 Synthase; [4]) was at least 50%.
`O=C(O)COc1ccc(/C=C/C(=O)NCCc2ccccn2)cc1` [Example 73] gave an inhibition at 10 µM (Thromboxane A2 Synthase; [2]) of 23% and an inhibition at 10 µM (Thromboxane A2 Synthase; [3]) of 47%.
Molecule `O=C(/C=C/c1ccc(OC(F)(F)C(=O)O)cc1)NCc1cccnc1` [Example 74] has an inhibition at 10 µM (IL-12; 48 hours) of 51.1%.
In the case of `COC(=O)/C=C/c1ccc(/C=C/C(=O)NCc2cccnc2)cc1` [Example 76], the inhibition at 10 µM (IL-12; 48 hours) was 50%.
Molecule `COC(=O)CCc1ccc(/C=C/C(=O)NCCc2ccccn2)cc1` [Example 78] has an inhibition at 10 µM (IL-12; 48 hours) of 49.2%.
`O=C(O)CCc1ccc(/C=C/C(=O)NCCc2ccccn2)cc1` [Example 79] showed an inhibition at 10 µM (IL-12; 48 hours) of 43%.
For `COC(=O)CC(O)c1ccc(/C=C/C(=O)NCc2cccnc2)cc1` (centres unmarked) [Example 80, methyl 3-hydroxy-3-[4-[2-[N-(3-pyridylmethyl)carbamoyl]ethenyl]phenyl]propionate], the inhibition at 10 µM (IL-12; 48 hours) was 52.3%.
With `CCOC(=O)COc1ccc(/C=C(\C#N)C(=O)NCc2cccnc2)cc1` [Example 81, Ethyl [4-[2-Cyano-2-[N-(3-pyridylmethyl)carbamoyl]ethenyl]phenoxy]acetate] the inhibition at 10 µM (IL-12; 48 hours) was 41%.
`N#C/C(=C\c1ccc(OCC(=O)O)cc1)C(=O)NCc1cccnc1` [Example 82, Sodium [4-[2-Cyano-2-[N-(3-pyridylmethyl)carbamoyl]ethenyl]phenoxy]acetate] gave an inhibition at 10 µM (IL-12; 48 h) of 30.7%.
`N#C/C(=C\c1ccc(OCC(=O)O)cc1)C(=O)NCc1cccnc1` [Example 83, [4-[2-Cyano-2-[N-(3-pyridylmethyl)carbamoyl]ethenyl]phenoxy]acetic Acid] showed an inhibition at 10 µM (IL-12; 48 hours) of 40.9%.
In the case of `CN(C)C(=O)COc1ccc(/C=C(\C#N)C(=O)NCc2cccnc2)cc1` [Example 84], the inhibition at 10 µM (IL-12; 48 hours) was 38.9%.
Molecule `CCOC(=O)COc1ccc(/C(C)=C/C(=O)NCc2cccnc2)cc1` [Example 85, Ethyl [4-[(E)-1-Methyl-2-[N-(3-Pyridylmethyl)carbamoyl]ethenyl]phenoxy]acetate] has an inhibition at 10 µM (IL-12; 48 hours) of 47.4%.
For `O=C(O)CNc1ccc(/C=C/C(=O)NCc2cccnc2)cc1` [Example 88, [[4-[(E)-2-[N-(3-Pyridylmethyl)carbamoyl]ethenyl]phenyl]amino]acetic Acid], the inhibition at 10 µM (IL-12; 48 hours) was 26.4%.
